This note sets out measurements from US6603023B2 (priority 1996, dated 2003).

Experiment [1] concerns CCRF-CEM/VBL100. Kind of experiment: cells. In kind it is cell-based, human. Here is the method:
(§1) The drug-resistant cell lines were continuously cultured in the presence of the selecting agent, AD, DX, VBL or VM to maintain the drug resistant phenotypes. […] All cells were cultured in RPMI 1640-10% FBS at 37° C. 5% CO2 (see below).
(§2) The cells were cultured at an initial density of 5×10^4 cells/mL. They were maintained in a 5% CO2-humidified atmosphere at 37° C. in RPMI-1640 medium (GIBCO-BRL, Gaithersburg, Md.) containing penicillin (100 U/mL), streptomycin ([…]) (GIBCO-BRL) and 10% heat inactivate fetal bovine serum. Culture for cell suspension (such as for CCRF-CEM, P388 and sublines), were performed by the XTT-microculture tetrazonium method (Scudiero, D. A. et al., Cancer Res. 1988, 48, 4827-4833) in duplicate in 96-well microtiter plates.
(§3) 2′,3′-Bis(methoxy-4-nitro-5-sufophenyl)-5-[(phenylamino)carbonyl]2H-tetrazolium hyudroxide (XTT) was prepared at 1 mg/mL in prewarmed (37° C.) medium without serum. Phenazine methosulfate (PMS) and fresh XTT were mixed together to obtain 0.025 mM PMS-XTT solution (25 μL of the stock 5 mM PMS was added per 5 mL of 1 mg/mL XTT). Following a 72 h incubation, 50 μL of the assay aliquots were added to each well of the cell culture. After incubation at 37° C. for 4 h, absorbance at 450 nm and 630 nm was measured with a microplate reader (EL340, Bio-Tek Instruments, Inc., Winooski, Vt.).

For experiment [2], the system named is CCRF-CEM/VM1. Kind of experiment: cells. In kind it is cell-based, human. The conditions noted are these: Table 6. Here is the method:
as §1, §2, §3

Experiment [3] deals with CCRF-CEM human T-cell acute lymphoblastic leukemia cell line. Kind of experiment: XTT cytotoxicity (cell growth inhibition), CCRF-CEM. How it is done:
The DC-3F hamster lung fibroblast cell line and its actinomycin D-selected sublines (DC-3F/ADII and DC-3F/ADX) were obtained from the Memorial Sloan-Kettering Cancer Center (MSKCC).
as §1, §2, §3
In general terms: Tetrazolium assays rely on reduction of a dye to a coloured formazan, in cell work by metabolically active cells.

Where [4] appears, read: Table 6, single determinations, read-out: IC50.
Setting [5] is: single determinations, read-out: IC50.
Where [6] appears, read: Table 7, CEM/VBL, read-out: IC50.

Where two headings read alike, the source gives them in different places. Where only a bound is given, the exact number is not on record here.

For orientation: IC50 means the concentration that inhibits the measured activity by half.

In the case of `CC(=Cc1csc(C)n1)C1CC2OC2CCCCC(O)C(C)C(=O)C(C)(C)C(O)CC(=O)O1` (mixture of isomers) [8-desmethyl Mix-cis Epo], the IC50 was determined as 5950 nM in experiment [1] (setting [4]); 2550 nM in experiment [2] (setting [5]); 960 nM in experiment [3] (Table 6, single determinations).

Turning to `CC(=Cc1csc(C)n1)C1CC=CCCCC(C)C(O)C(C)C(=O)C(C)(C)C(O)CC(=O)O1` (stereo not shown) [#4], the IC50 in experiment [1] (Table 6, single determinations, listed as 4, read-out: IC50) was found to be 43000 nM; in experiment [1] (Table 7, CEM/VBL, listed as 4, read-out: IC50) it was 43800 nM; in experiment [2] (single determinations, listed as 4, read-out: IC50), 2760 nM; in experiment [3] (Table 6, single determinations, listed as 4), 2120 nM; in experiment [3] (Table 7, CEM, listed as 4) it was 2100 nM.

On to `CC(=Cc1csc(C)n1)C1CC2OC2CCCC(C)C(O)C(C)C(=O)C(C)(C)C(O)CC(=O)O1` (stereo not shown) [#5], for which the IC50 is 35200 nM in experiment [1] (setting [4]); 35200 nM in experiment [1] (setting [6]); 98000 nM in experiment [2] (setting [5]); above 20000 nM in experiment [3] (Table 6, single determinations); above 20000 nM in experiment [3] (Table 7, CEM).

On to `CC(=Cc1csc(C)n1)C1CC=CCCCC(C)C(O)C(C)C(=O)C(C)(C)C(O)CC(=O)O1` (stereo not shown) [#6], for which the half-maximal inhibitory concentration (IC50) in experiment [1] (Table 6, single determinations, listed as 6, read-out: IC50) came to 35 nM; in experiment [1] (Table 7, CEM/VBL, listed as 6, read-out: IC50), 35 nM; in experiment [1] (read-out: IC50), 35 nM; in experiment [2] (single determinations, listed as 6, read-out: IC50), 111 nM; in experiment [3], 52 nM; in experiment [3] (Table 6, single determinations, listed as 6), 52 nM. Moreover, 52 nM corresponded to half-maximal inhibition in experiment [3] (Table 7, CEM, listed as 6) (IC50). Besides, in experiment [3] (CCRF-CEM leukemic cells), the “Rel. Value (potency relative to Epo B)” value is 1/149.

`C/C(=C\c1csc(C)n1)[C@@H]1C[C@@H]2O[C@]2(C)CCC[C@H](C)[C@H](O)[C@@H](C)C(=O)C(C)(C)[C@@H](O)CC(=O)O1` [#8, epothilone B]: the IC50 is 1.7 nM in experiment [1] (Table 5, CCRF-CEM/VLB, single determinations, read-out: IC50); 2.13 nM in experiment [1] (Table 6, read-out: IC50 (mean ± of determinations, in parentheses)); 2.9 nM in experiment [1] (Table 6, single determinations, listed as 8, read-out: IC50); 3.1 nM in experiment [1] (Table 6, single determinations, listed as EPOTHILONE B (Synthetic), read-out: IC50); 2.93 nM in experiment [1] (Table 7, CEM/VBL, listed as synthetic epothilone B, read-out: IC50); 1.26 nM in experiment [2] (read-out: IC50 (mean ± of determinations, in parentheses)). Moreover, the IC50 in experiment [2] (single determinations, listed as 8, read-out: IC50) was 4.4 nM; in experiment [2] (single determinations, listed as EPOTHILONE B (Synthetic), read-out: IC50), 1.8 nM; in experiment [3] (Table 5, single determinations), 0.42 nM; in experiment [3] (Table 6, single determinations, listed as 8), 0.82 nM; in experiment [3] (Table 6, single determinations, listed as EPOTHILONE B (Synthetic)), 0.55 nM; in experiment [3] (Table 7, CEM, listed as synthetic epothilone B) it was 0.82 nM. For the same molecule, the IC50 in experiment [3] (read-out: IC50 (mean ± of determinations, in parentheses), Table 6) turned out to be 0.35 nM.

With `C/C(=C\c1csc(C)n1)[C@@H]1C[C@@H]2O[C@]2(C)CCC[C@H](C)[C@H](O)[C@@H](C)C(=O)C(C)(C)[C@@H](O)CC(=O)O1` [#9, epothilone B], the “relative resistance (fold) vs parent cell line” value in experiment [1] (Table 6) is “(7.0X)”. In addition, the IC50 in experiment [1] (Table 6, single determinations, listed as 9, read-out: IC50) came to 2.6 nM; in experiment [1] (Table 6, single determinations, listed as EPOTHILONE B (Natural), read-out: IC50) it was 1.7 nM; in experiment [1] (Table 7, CEM/VBL, listed as natural epothitone B, read-out: IC50), 2.63 nM; in experiment [2] (single determinations, listed as 9, read-out: IC50), 1.8 nM; in experiment [2] (single determinations, listed as EPOTHILONE B (Natural), read-out: IC50), 0.77 nM; in experiment [3] (Table 6, single determinations, listed as 9) it was 0.44 nM. Moreover, the IC50 in experiment [3] (Table 6, single determinations, listed as EPOTHILONE B (Natural)) was found to be 0.17 nM; in experiment [3] (Table 7, CEM, listed as natural epothitone B) it was 0.44 nM.

Take `CC1=CCC(C(C)=Cc2csc(C)n2)OC(=O)CC(O)C(C)(C)C(=O)C(C)C(O)C(C)CCC1` (stereo not shown) [#11]: the IC50 in experiment [1] (setting [4]) was determined as 262 nM; in experiment [1] (setting [6]), 262 nM; in experiment [1] (read-out: IC50) it was 262 nM; in experiment [2] (setting [5]), 94 nM; in experiment [3] (Table 6, single determinations) it was 90 nM; in experiment [3] (Table 7, CEM), 90 nM.
